Test results reported in patent publication US20170304369A1, “METHODS OF DIFFERENTIATING STEM CELLS INTO LIVER CELL LINEAGES” (Agency for Science, Technology and Research, priority 2014, published 2017).
Read-outs that look alike come from different tables or passages of the source.

Columns and labels:
[1] = system: hPSC-derived LB cells; assay: Hepatic progenitor specification from hPSC-derived LB cells (days 7-12), liver gene expression
Procedure: (§1) mTeSR1-grown hPSCs were cultured and differentiated as follows: • a) hPSCs cells were seeded at 1:12 as small clumps using Accutase (Millipore, Cat#SCR005) and Geltrex (Lifetech, Cat#A1413302). • b) Anterior Primitive Streak (day 1) was specified using Activin A (100 ng/ml), CHIR99021 (3 μM), PI-103 (50 nM) and Fgf2 (10 ng/ml) in serumless CDM2 basal medium for 24 hr. • c) Activin A (100 ng/ml) and DM3189 (250 nM) and PI-103 (50 nM) were added in the same basal medium for 24 hr to induce Definitive Endoderm (DE) (day 2). • d) DE was then patterned into PFG by using A83-01 (1 μM), RA (2 μM), BMP4 (30 ng/ml) and Fgf2 (10 ng/ml) in CDM KOSR basal media for another 24 hrs. • e) PFG was further differentiated to LB progenitors using Activin A (100 ng/ml), 8-bromo-CAMP (1 mM) and BMP4 (10 ng/ml) in CDM KOSR basal media for 3 days (day 4 to 6). • f) LB progenitors were treated with BMP4 (10 ng/ml), Oncostatin M (10 ng/ml), Dexamethasone ([…]), DAPT, C59 (1 μM) or RO4919097 (2 μM), forskolin ([…]), human recombinant insulin (10 μg/ml), ascorbic acid-2 phosphate (200 μg/ml), L-gluthathione ([…]) and amino acid concentrate and in IMDM/F12 media for the next 6 days (day 7 to 12) to induce hepatic progenitors. • g) Hepatic progenitors were treated with Dexamethasone (10 μM), RO4929097 (2 μM) or DAPT (10 μM), Forskolin (10 μM), human recombinant insulin (10 μg/ml), ascorbic acid-2 phosphate (200 μg/ml) in IMDM/F12 media for 6 days (day 13 to 18) to generate hepatocyte-like cells. Intra-Splenic Transplantation into FRG^−/− Mice
(§2) RNA was extracted using Zymo RNA extraction kit. RT-quantitative PCR was used to quantify gene expression. Primer sequences were designed by NCBI Primer Tool and primer specificity and linearity was tested before usage for gene expression analyses.
To identify the signals that regulate the progression of the LB progenitors from an ALB- to a more differentiated ALB+ state, multiple signaling pathways were systematically screened for their effects on ALB expression (including FGF, WNT, Notch, HGF, cAMP/PKA, TGFβ, and BMP).

[2] = system: adult human hepatocytes; assay: Adult human primary hepatocytes in vitro culture, liver gene expression after 2 days; type: cell-based
Text: RNA was extracted using Zymo RNA extraction kit. RT-quantitative PCR was used to quantify gene expression. […]
The signals that promote hepatocyte specification and/or maturation were considered to also ameliorate such loss of liver maturity and gene expression during in vitro culture. Thus, the signaling pathways that appear to be dysregulated were investigated including Notch, TGFb, Wnt, as well as other major signaling pathways including estrogen, BMP, FGF, PKA/cAMP pathways, in order to determine the effects on liver genes after 2 days.

[3] = system: PFG cells; assay: Liver bud (LB) specification from posterior foregut, days 4-6, gene expression; type: cell-based, human
Procedure: as §1, §2
The signaling pathways, including Retinoic, Nodal/Activin, Bmp, PKA, FGF and Wnt signaling, were explored to determine if they could directly regulate LB specification.

[4] = system: hepatic progenitors; assay: Treatment of hepatic progenitors (days 13-18), hepatocyte-like cell, periportal versus perivenous gene expression; type: cell-based, human
[5] = system: hPSC-derived DE; assay: Foregut specification: treatment of hPSC-derived DE (day 3), downstream gene expression by RT-qPCR; type: cell-based, human
Text: RT-quantitative PCR was used to quantify gene expression. […] During liver development, populations of definitive endoderm cells are first patterned along the anterior-posterior axis to form either the foregut or mid/hindgut. In the present invention the effects of signaling inhibition on the developmental competence of the foregut cells to give rise to the liver bud (LB) cells was examined. Competence is defined as the capacity of one stem cell or progenitor cell to differentiate into its daughter cell type. For example, the posterior foregut is competent when it could give rise to its daughter cell types such as the pancreatic endoderm and LB cells.

[6] = on removal of the component from a cocktail of signaling factors
[7] = addition at the LB specification stage
[8] = 24 h during foregut specification

SMILES: Nc1ncnc2c1nc(Br)n2[C@@H]1O[C@@H]2COP(=O)(O)O[C@H]2[C@H]1O [8-bromoCAMP]
- expression of functional liver enzymes such as FAH, PAH, HGD, HPD, TAT, CPS1, CYP3A4 ([1]; days 9-12): enhances
- hepatic progenitor marker ALB expression ([1]; days 9-12): promotes
- periportal gene expression [2]: promote
- perivenous gene expression (e.g. members of the CYP1, CYP2 and CYP3 families) [2]: reducing
- expression of cytochrome genes [2, 6]: increased
- expression of LB markers including AFP, CEBPA, HNF6, HNF1B, PROX1, TBX3 and HNF4A ([3]; during LB specification): significantly increase

SMILES: CC1=C(/C=C/C(C)=C\C=C\C(C)=C\C(=O)O)C(C)(C)CCC1 [9-Cis-RA, 3,7-Dimethyl-9-(2,6,6-trimethyl-1-cyclohexen-1-yl)nona-2E,4E,6Z,8E-tetraenoic acid]
- expression of CYP3A5, CYP3A7, CYP3A4, CYP2D1, CYP2E1, and CYP1A1 [4]: enhance
- expression of periportal genes such as ARG1, OTC, ASL1 and CPS1 [4]: reduces

SMILES: CC(=N)NCc1cccc(CN)c1.Cl.Cl [1400 W dihydrochloride, N-[[3-(Aminomethyl)phenyl]methyl]-ethanimidamide dihydrochloride]
- expression of FAH, PAH, HGD, TAT, CPS1, ARG1, FBA, FBB and FBG ([4]; PKG antagonists): upregulate

SMILES: Cc1cccc(-c2nn(C(=S)Nc3ccccc3)cc2-c2ccnc3ccccc23)n1 [A83-01, 3-(6-Methyl-2-pyridinyl)-N-phenyl-4-(4-quinolinyl)-1H-pyrazole-1-carbothioamide]
- expression of CYP1A1, CYP1A2, CYP2C19, CYP2C9, CYP3A4, CYP3A5, CYP3A7 and CYP7A1 ([2]; TGFβ inhibition): increased
- subsequent expression of ALB ([3]; treatment during LB specification, then hepatic specification medium): reduces

SMILES: O=C1O[C@H]([C@@H](O)CO)C(O)=C1OP(=O)(O)O [AA2P, L-ascorbic acid 2-phosphate]
- expression of PAH, HGD, HPD, TAT, MAI, FAH, CYP3A4, ALB and CPS1 [1]: enhancement
- liver maturation ([1]; days 7 to 12 and days 13 to 16): significantly promoted

SMILES: c1ccc2c(-c3cnn4cc(-c5ccc(N6CCNCC6)cc5)cnc34)ccnc2c1 [BM3189]
- ALB expression ([1]; added to hPSC-derived LB cells): decreased

SMILES: Cc1cnc(-c2cnc(NCCNc3ccc(C#N)cn3)nc2-c2ccc(Cl)cc2Cl)[nH]1 [CHIR99201, 6-[[2-[[4-(2,4-dichlorophenyl)-5-(5-methyl-1H-imidazol-2-yl)-2pyrimidinyl]amino]ethyl]amino]-3-pyridinecarbonitrile]
- ALB expression ([1]; subtraction from BCDEFV cocktail, day 10): inhibits
- GLT and GS expression [2, 6]: decrease
- expression of periportal genes like ARG1, SERDH, CPS1 [2, 6]: increased
- expansion and self-renewal of LB progenitors [3]: enhance
- LB gene expression [3, 7]: higher
- expansion [3, 7]: promotes

SMILES: C[C@H](NC(=O)Cc1cc(F)cc(F)c1)C(=O)NC(C(=O)OC(C)(C)C)c1ccccc1 (stereo partly shown) [DAPT]
- SOX9 expression ([1]; Notch inhibition): reducing
- ALB expression ([1]; added to hPSC-derived LB cells): enhance
- expression of the majority of cytochrome enzymes (CYP1A1, CYP1A2, CYP2C19, CYP2C9, CYP2D6, CYP2E1, CYP3A4, CYP3A5, CYP3A7, CYP7A1) [2]: upregulated

SMILES: C=C[C@@]1(C)CC(=O)[C@]2(O)[C@@]3(C)[C@@H](O)CCC(C)(C)[C@@H]3[C@H](O)[C@H](OC(C)=O)[C@@]2(C)O1 [Forskolin]
- expression of functional liver enzymes such as FAH, PAH, HGD, HPD, TAT, CPS1, CYP3A4 [1]: enhances

SMILES: CC(=O)Nc1cccc(-n2c(=O)n(C3CC3)c(=O)c3c(Nc4ccc(I)cc4F)n(C)c(=O)c(C)c32)c1 [GSK1120212]
- subsequent expression of liver genes ([1]; brief treatment of LB cells for 2 days): higher

SMILES: Cc1ccc2nc(NC(=O)CSc3nc4c(c(=O)n3-c3ccccc3)SCC4)sc2c1 [IWP2, N-(6-Methyl-2-benzothiazolyl)-2-[(3,4,6,7-tetrahydro-4-oxo-3-phenylthieno[3,2-d]pyrimidin-2-yl)thio]-acetamide]
- downstream LB gene expression (AFP, CEBPA, TBX3, HNF1B) [5, 8]: severely reduces
- expression of MHG markers CDX2 and EVX1 [5, 8]: reduces
- HNF6, PROX1 and HEX expression ([5]; Wnt inhibition during foregut specification): upregulated
